From US20150072395A1, “RECOMBINANT MICROORGANISMS AND METHODS OF USE THEREOF” (priority 2013, published 2015)

Columns and labels:
[1] = test system: C. autoethanogenum DSM23693 harbouring pMTL85151-pheS*; type: cell-based, Clostridium autoethanogenum; details: summary statement
Experimental: (§1) The three independent transformants of C. atoethanogenum DSM23693 harbouring pMTL85151-pheS*, as well as C. autoethanogenum DSM23693 harbouring pMTL85151, were grown in liquid PECT media supplemented with thiamphenicol and grown at 37° C. under CO only conditions. After 24 hours, 100 ul of each of the three independent, as well as the control pMTL85151, were plated into PETC-MES agar supplemented with either thiamphenicol alone, or thiamphenicol and DL-4-chlorophenylalanine and incubated for 48 hours.

[2] = test system: C. autoethanogenum DSM23693 harbouring pMTL85151; experiment: Toxicity/sensitivity testing of DL-4-chlorophenylalanine, C. autoethanogenum with empty vector; type: cell-based, Clostridium autoethanogenum
Experimental: (§2) E. coli Top10 and C. autoethanogenum DSM23693 harbouring the empty vector pMTL85151 were grown initially in the presence of DL-4-chlorophenylanine on plates and in liquid media to ascertain if the counter-selection marker has any effect on growth of the organisms.
as §1

[3] = test system: E. coli Top10 harbouring the empty vector pMTL85151; experiment: Toxicity testing of DL-4-chlorophenylalanine, E. coli with empty vector; type: cell-based; details: plates and liquid media, 24 hours
Experimental: as §2

[4] = test system: E. coli TOP10 harbouring pMTL85151-pheS*; experiment: Testing pheS* in E. coli (plating on LB with chloramphenicol and DL-4-chlorophenylalanine); type: cell-based
Experimental: To test the ability of the counter selection marker to work in E. coli, the plasmid pMTL85151-pheS* was transformed into TOP10 and grown under chloramphenicol selection only. Once the culture had reached an OD of 0.5, representing an exponential growth phase, 100 ul was plated onto LB plates containing chloramphenicol and DL-4-chlorophenylalanine as well as chloramphenicol alone as a control, in triplicate, […]

LZ-pMTL83155 = experiment: Sensitivity of C. autoethanogenum transformants to ganciclovir (plating on PETC agar), empty-vector strain; type: cell-based, Clostridium autoethanogenum
Experimental: (§3) The pMTL83155, pMTL83155-Hsv-tk and pMTL85155-PheS plasmids were introduced into C. autoethanogenum DSM23693 (a derivate of DSM10061) as described in WO2012053905. Outgrowth was performed in PETC broth and spread on PETC-agar media supplemented with 15 μg/ml thiamphenicol (Sigma) and 10 μg/ml trimethoprim (Sigma). Colonies were observed after 3 days of incubation at 37° C. in pressurized gas jars with 20 psi of a gas mix of 48% CO3 2% H2, 20% CO2, 30% N2. Streaks of single colonies were made on PETC-agar media containing 15 μg/mlthiamphenicol.
(§4) The sensitivity of LZ-pMTL83155 and LZ-pMTL83155-hsv-tk to ganciclovir was tested by plating them on PETC agar media containing 20 nM ganciclovir only and PETC agar media containing 20 nM ganciclovir and 15 μg/ml thiamphenicol. […] The presence of Hvs-tk gene confers toxicity to ganciclovir.

LZ-pMTL83155-hsv-tk = type: cell-based, Clostridium autoethanogenum
Experimental: as §3, with “Colonies were observed after 3 days of incubation at 37° C. in pressurized gas jars with 20 psi of a gas mix of 48% CO3 2% H2, 20% CO2, 30% N2.” left out
as §4

Row | SMILES | Counterselection in combination with PheS* [1] | Sensitivity to prodrug: growth on plate, column LZ-pMTL83155 ([2]; DL-4-Chlorophenlanine 0.20%, CSM PheS, control strain without CSM) | Growth on double selection plates (thiamphenicol and DL-4-chlorophenylalanine) ([2]; PETC-MES agar, 48 hours) | Effect on growth ([2]; plates and liquid media, 48 hours) | Effect on growth [3] | Growth on plates with chloramphenicol and DL-4-chlorophenylalanine ([4]; 24 hours at 37° C., compared with chloramphenicol alone) | Growth on plates with chloramphenicol and DL-4-chlorophenylalanine ([4]; after 36 hours) | Colonies on ganciclovir plates (LZ-pMTL83155; 20 nM ganciclovir, with or without 15 μg/ml thiamphenicol) | Sensitivity to prodrug: growth on plate, LZ-pMTL83155 (LZ-pMTL83155; Ganciclovir 20 nM, CSM Hsv-tk) | Sensitivity to prodrug: growth on plate, LZ-pMTL83155-hsv-tk (LZ-pMTL83155-hsv-tk; Ganciclovir 20 nM, CSM Hsv-tk, PETC agar) | Counterselection in combination with HSV-Tk (LZ-pMTL83155-hsv-tk; summary statement)
1 | NC(Cc1ccc(Cl)cc1)C(=O)O (racemic) [DL-4-chlorophenylalanine] | effective for counterselection in C. autoethanogenum | Lawn | the same results as the thiamphenicol only plate | did not impede growth of either organism in liquid media or on plates | did not impede growth of either organism in liquid media or on plates | a light shading of small colonies | outgrown to the same level as the chloramphenicol alone plates | – | – | – | –
2 | Nc1nc(O)c2ncn(COC(CO)CO)c2n1 [Ganciclovir, ganciclovir] | – | – | – | – | – | – | – | observed only with LZ-pMTL83155 transformants | Lawn | 0-5 ^ | effective for counterselection in C. autoethanogenum
